Experimental data published in patent US9024041B2, “P38 MAP kinase inhibitors” (Respivert Ltd., priority 2010, dated 2015).
“Also recorded” adds a separate entry of the source. Marks after values point to notes of the source that are not given here.

Key:
[1] = tested on: LPS-induced TNFα release in d-U937 cells; test: LPS-induced TNFα release in d-U937 cells; format: cell-based; conditions: Homo sapiens, dU937, 4 h; read-out: LPS/TNFα REC50 d-U937
Summary of the method: (§1)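 U937 cells differentiated with PMA (100 ng/mL, 48–72 hr), pre-incubated with compound 2 hr, then stimulated with 0.1 μg/mL E. coli O111:B4 LPS for 4 hr. Supernatant TNFα and IL-8 measured by sandwich ELISA; REC50 (TNFα) and IC50 (IL-8 inhibition vs vehicle) taken from concentration-response curves.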

[2] = biological target: T1, p38 MAPKα isoform (MAPK14: Invitrogen) (Homo sapiens, UniProt Q16539); test: p38 MAPKα enzyme inhibition assay (FRET, Z-LYTE, via MAPKAP-K2 activation); format: biochemical; conditions: 2 hr pre-incubation, ATP 10.0 μM; read-out: Enzyme Inhibition IC50 p38α
T1 construct: purchased Invitrogen

[3] = tested on: LPS-induced TNFα release in THP-1 cells; test: LPS-induced TNFα release in THP-1 cells; format: cell-based; conditions: Homo sapiens, 3 μg/mL LPS, 4 hr
Summary of the method: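 Human monocytic cells were stimulated with 3 μg/mL E. coli LPS for 4 hr. Supernatant TNFα was measured by sandwich ELISA. Inhibition was taken relative to vehicle control, and IC50 derived from the concentration-response curve.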

[4] = tested on: LPS-induced neutrophil accumulation in Balb/c mice; test: LPS-induced neutrophil accumulation in mice; format: in vivo; conditions: for % inhibition of Influx / Neutrophil numbers in BAL / % inhibition (neutrophil numbers in BAL): 0.2 mg/mL intra tracheal; for inhibitory effects versus neutrophil accumulation into the BALF (in words): dosed 8 hr prior to LPS challenge
Procedure: LPS-Induced Neutrophil Accumulation in Mice
Non-fasted Balb/c mice were dosed by the intra tracheal route with either vehicle, or the test substance at the indicated times (within the range 2-12 hr) before stimulation of the inflammatory response by application of an LPS challenge. At T=0, mice were placed into an exposure chamber and exposed to LPS. After a further 8 hr the animals were anesthetized, their tracheas cannulated and BALF extracted by infusing and then withdrawing from their lungs 1.0 mL of PBS via the tracheal catheter. Total and differential white cell counts in the BALF samples were measured using a Neubaur haemocytometer. Cytospin smears of the BALF samples were prepared by centrifugation at 200 rpm for 5 min at RT and stained using a DiffQuik stain system (Dade Behring). Cells were counted using oil immersion microscopy.

[5] = biological target: T2, Recombinant, phosphorylated p38 MAPKγ (MAPK12:Invitrogen) (Homo sapiens, UniProt P53778); test: p38 MAPKγ enzyme inhibition assay (FRET, Z-LYTE); format: biochemical; conditions: 2 hr pre-incubation, ATP 100 μM; read-out: Enzyme Inhibition IC50 p38γ
T2 construct: purchased Invitrogen
T2 sequence (P53778 1-367): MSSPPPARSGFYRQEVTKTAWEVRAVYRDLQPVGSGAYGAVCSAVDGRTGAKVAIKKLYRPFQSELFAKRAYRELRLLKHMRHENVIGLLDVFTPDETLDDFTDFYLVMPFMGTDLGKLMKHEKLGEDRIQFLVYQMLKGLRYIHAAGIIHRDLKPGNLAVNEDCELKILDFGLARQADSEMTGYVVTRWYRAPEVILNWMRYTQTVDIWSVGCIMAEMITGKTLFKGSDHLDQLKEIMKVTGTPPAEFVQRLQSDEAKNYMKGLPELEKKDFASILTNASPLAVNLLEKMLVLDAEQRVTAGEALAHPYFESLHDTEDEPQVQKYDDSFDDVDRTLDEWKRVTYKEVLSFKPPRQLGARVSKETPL
Procedure: The enzyme inhibitory activities of compounds disclosed herein were determined by fluorescence resonance energy transfer (FRET) using synthetic peptides labelled with both donor and acceptor fluorophores (Z-LYTE, Invitrogen Ltd., Paisley, UK). Recombinant, phosphorylated p38 MAPKγ (MAPK12:Invitrogen) was diluted in HEPES buffer, mixed with the test compound at the desired final concentrations and incubated for 2 hr at RT. The FRET peptide (2 μM) and ATP (100 μM) were added to the enzyme/compound mixture and incubated for 1 hr. Development reagent (protease) was added for 1 hr prior to detection in a fluorescence microplate reader (Varioskan® Flash, ThermoFisher Scientific). The site-specific protease cleaves non-phosphorylated peptide only and eliminates the FRET signal. Phosphorylation levels of each reaction were calculated using the ratio of coumarin emission (donor) over fluorescein emission (acceptor) for which high ratios indicate high phosphorylation and low ratios indicate low phosphorylation levels.

[6] = tested on: LPS-induced IL-8 release in d-U937 cells; test: LPS-induced IL-8 release in d-U937 cells; format: cell-based; conditions: Homo sapiens, dU937, 0.1 μg/mL LPS, 4 hr
Summary of the method: as §1

[7] = tested on: Differentiated U937 cells; test: MTT assay: cell viability on exposure to test compounds; format: cell-based, human; conditions: percentage loss of cell viability vs vehicle; for MTT Assay (Viability) 4 h d-U937: 5% FCS; for MTT Assay (Viability) 24 h d-U937: 10% FCS
Summary of the method: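 Differentiated U937 cells were pre-incubated with compound for either 4 h in 5% FCS or 24 h in 10% FCS, then given MTT for 1 h. Formazan was dissolved in DMSO and read at 550 nm. Viability loss is expressed as % versus 0.5% DMSO vehicle, so an apparent gain appears as a negative value.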

[8] = tested on: Poly I:C-induced ICAM-1 expression in BEAS2B cells; test: Poly I:C-induced ICAM-1 induction in BEAS2B cells; format: cell-based; conditions: Homo sapiens, BEAS-2B, poly I:C 1 μg/mL, 18 hr, read-out: PolyI:C/ICAM1 IC50 BEAS2B
Summary of the method: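 Human bronchial epithelial BEAS2B cells were pre-incubated with compound for 2 h, then transfected with poly I:C at 1 μg/mL. Surface ICAM-1 was measured 18 h later by cell-based ELISA (OD450–655), normalised to crystal-violet cell number (OD595). IC50 was taken from the concentration–response curve against vehicle.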

T1 sequence (Q16539 whole entry, canonical isoform): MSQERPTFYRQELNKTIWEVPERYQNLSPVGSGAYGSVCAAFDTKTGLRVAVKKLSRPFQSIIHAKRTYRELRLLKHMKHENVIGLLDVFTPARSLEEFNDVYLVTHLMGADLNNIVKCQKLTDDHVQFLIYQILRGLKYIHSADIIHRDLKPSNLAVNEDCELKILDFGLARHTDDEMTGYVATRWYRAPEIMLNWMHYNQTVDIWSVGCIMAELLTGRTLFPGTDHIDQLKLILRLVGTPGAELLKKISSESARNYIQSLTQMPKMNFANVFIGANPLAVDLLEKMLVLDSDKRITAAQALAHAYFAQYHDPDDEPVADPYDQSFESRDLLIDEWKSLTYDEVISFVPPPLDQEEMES

Row | Compound | EC50 [1] [nM] | IC50 [2] [nM] | IC50 [3] [nM] | % inhibition of Influx ([4]; 8 h pre-dose before LPS) [%] | Neutrophil numbers in BAL ([4]; 8 h pre-dose before LPS) | inhibitory effects versus neutrophil accumulation into the BALF (in words) [4] | IC50 [5] [nM] | IC50 [6] [nM] | MTT Assay (Viability) 4 h d-U937 ([7]; 1 μg/mL) [%] | MTT Assay (Viability) 24 h d-U937 ([7]; 1 μg/mL) [%] | IC50 [8] [nM] | % inhibition (neutrophil numbers in BAL) ([4]; 2 hr pre-dose before LPS) [%] | Neutrophil numbers in BAL ([4]; 2 hr pre-dose before LPS) | % inhibition (neutrophil numbers in BAL) ([4]; 12 h pre-dose before LPS) [%] | Neutrophil numbers in BAL ([4]; 12 h pre-dose before LPS) | inhibition of neutrophil accumulation into the BALF (in words) ([4]; administered 2 and 12 hr prior to LPS challenge) | MTT Assay (Viability) 4 h d-U937 ([7]; 10 μg/mL) | MTT Assay (Viability) 24 h d-U937 ([7]; 10 μg/mL)
1 | CC(C)(C)c1cc(NC(=O)Nc2ccc(Oc3ccnc(NC(N)=O)c3)c3ccccc23)n(-c2ccc(S(C)(=O)=O)cc2)n1 [Example 45, 1-(3-tert-butyl-1-(4-(methylsulfonyl)phenyl)-1H-pyrazol-5-yl)-3-(4-((2-ureidopyridin-4-yl)oxy)naphthalen-1-yl)urea] | 0.3 | 18.9 | 2.2 | 24 | 13.2 ± 2.2 × 10^5/mL | inhibitory effects | 48.7 | 0.5 | −14.4 | 13.9 | 30.9 | – | – | – | – | – | – | –
2 | COCC(=O)Nc1cc(Oc2ccc(NC(=O)Nc3cc(C(C)(C)C)nn3-c3ccc(CO)c(Cl)c3)c3ccccc23)ccn1 [Example 13, N-(4-(4-(3-(3-tert-Butyl-1-(3-chloro-4-(hydroxymethyl)phenyl)-1H-pyrazol-5-yl)ureido)naphthalen-1-yloxy)pyridin-2-yl)-2-methoxyacetamide] | 0.03 | 10.7 | 1.3 | 43 | 9.9 ± 1.2 × 10^5/mL | inhibitory effects; also recorded: particularly marked | 168 | 8.6 | −28.5 | 27.0 | 2.3 | – | – | – | – | – | – | –
3 | COCC(=O)Nc1cc(Oc2ccc(NC(=O)Nc3cc(C(C)(C)C)nn3-c3ccc(OC)nc3)c3ccccc23)ccn1 [Example 16, N-(4-(4-(3-(3-tert-Butyl-1-(6-methoxypyridin-3-yl)-1H-pyrazol-5-yl)ureido)naphthalen-1-yloxy)pyridin-2-yl)-2-methoxyacetamide] | 1.2 | 4.5 | 1.2 | 55 | 6.3 ± 1.2 × 10^5/mL | inhibitory effects; also recorded: particularly marked | 54.3 | 29.6 | −16.7 | −6.2 | 8.1 | – | – | – | – | – | – | –
4 | CCNC(=O)Nc1cc(C(=O)c2ccc(NC(=O)Nc3cc(C(C)(C)C)nn3-c3ccc(C)cc3)c3ccccc23)ccn1 [Example 67, 1-(3-tert-butyl-1-p-tolyl-1H-pyrazol-5-yl)-3-(4-(2-(3-ethylureido)isonicotinoyl)naphthalen-1-yl)urea] | 17.6 | 18.8 | 6.5 | – | – | – | 443 | 21.9 | – | – | 13.8 | 40 | 10.5 ± 1.5 × 10^5/ml | 20 | 14.2 ± 1.7 × 10^5/ml | marked and long-lasting inhibition | −9.9^b % | 8.8^b %
